Assay results published in ChEMBL document CHEMBL4831501, “Discovery of a potent and selective inhibitor of histone lysine demethylase KDM4D” (Eur J Med Chem, 2021).

What was measured:
[1] = target: T1, Lysine-specific demethylase 4D (Homo sapiens) (UniProt Q6B0I6); experiment: Inhibition of human KDM4D expressed in Escherichia coli BL21 (DE3) at 1 uM using biotinylated H3-derived peptide and 2-OG as substrate preincubated for 15 mins followed by substrate addition and measured after 1 hr by AlphaLISA assay; conditions: time 75.0 min
T1 sequence (whole entry): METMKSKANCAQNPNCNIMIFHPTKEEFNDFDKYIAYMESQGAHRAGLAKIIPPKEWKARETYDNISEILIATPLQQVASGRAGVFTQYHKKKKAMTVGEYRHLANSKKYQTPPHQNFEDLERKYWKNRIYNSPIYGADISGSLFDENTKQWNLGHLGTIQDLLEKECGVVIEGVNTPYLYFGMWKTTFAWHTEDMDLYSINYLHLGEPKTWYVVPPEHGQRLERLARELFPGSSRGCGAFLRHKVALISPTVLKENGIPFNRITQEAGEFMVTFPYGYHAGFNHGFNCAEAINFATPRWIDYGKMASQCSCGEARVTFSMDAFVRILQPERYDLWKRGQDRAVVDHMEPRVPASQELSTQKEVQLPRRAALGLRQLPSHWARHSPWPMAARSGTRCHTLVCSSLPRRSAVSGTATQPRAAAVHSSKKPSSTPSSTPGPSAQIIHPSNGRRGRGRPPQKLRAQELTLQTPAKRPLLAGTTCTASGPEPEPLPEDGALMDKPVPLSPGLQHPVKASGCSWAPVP

[2] = target: T2, Lysine-specific demethylase 4D (Homo sapiens, UniProt Q6B0I6); experiment: Inhibition of human KDM4D expressed in Escherichia coli BL21 (DE3) using biotinylated H3-derived peptide and 2-OG as substrate preincubated for 15 mins followed by substrate addition and measured after 1 hr by AlphaLISA assay
T2 sequence (Q6B0I6 whole entry): T1 sequence (whole entry)

| inhibition [1] [%] | IC50 [2] [nM] | SMILES |
| --- | --- | --- |
| -7.31 |  | CC(C)(C)OC(=O)N[C@@H]1CCN(C(c2cc3c(cc2O)OCO3)C2CCCCC2)C1 (stereo partly drawn) |
| 99.5 | 100 | CC(C)(C)OC(=O)N[C@@H]1CCN(C(c2cc3c(cc2O)OCO3)c2ccnc3ccccc23)C1 (stereo partly drawn) |
| 94.6 | 509 | Cn1nccc1C(c1cc2c(cc1O)OCO2)N1CC[C@@H](NC(=O)OC(C)(C)C)C1 (stereo partly drawn) |
| 76 | 609 | CC(C)(C)OC(=O)N[C@@H]1CCN(C(c2ccncc2)c2cc3c(cc2O)OC(C)(C)O3)C1 (stereo partly drawn) |
| 96.5 | 482 | CC(C)(C)OC(=O)N[C@@H]1CCN(C(c2cccc(C#N)c2)c2cc3c(cc2O)OCO3)C1 (stereo partly drawn) |
| 98.7 | 664 | CC(C)(C)C(=O)N[C@@H]1CCN(C(c2ccncc2)c2cc3c(cc2O)OCO3)C1 (stereo partly drawn) |
| 2.78 |  | CC(C)(C)OC(=O)N[C@@H]1CCN(C(c2ccncc2)c2cc3c(cc2O)OCCO3)C1 (stereo partly drawn) |
| 12.9 |  | COc1cc(O)c(C(c2ccncc2)N2CC[C@@H](NC(=O)OC(C)(C)C)C2)cc1F (stereo partly drawn) |
| 98.1 | 368 | COc1cc(C#N)ccc1C(c1cc2c(cc1O)OCO2)N1CC[C@@H](NC(=O)OC(C)(C)C)C1 (stereo partly drawn) |
| 98.3 | 499 | COC(=O)c1cccc(C(c2cc3c(cc2O)OCO3)N2CC[C@@H](NC(=O)OC(C)(C)C)C2)c1 (stereo partly drawn) |
| 99 | 552 | CC(C)(C)OC(=O)N[C@@H]1CCN(C(c2cnccn2)c2cc3c(cc2O)OCO3)C1 (stereo partly drawn) |
| 99.4 | 546 | COc1cccc(C(=O)N[C@@H]2CCN(C(c3ccncc3)c3cc4c(cc3O)OCO4)C2)c1 (stereo partly drawn) |
| 98.2 | 192 | CC(C)(C)OC(=O)N[C@@H]1CCN(C(c2ccc(F)cc2)c2cc3c(cc2O)OCO3)C1 (stereo partly drawn) |
| 99.4 | 141 | CC(C)(C)OC(=O)N[C@@H]1CCN(C(c2ccc(C#N)cc2)c2cc3c(cc2O)OCO3)C1 (stereo partly drawn) |
| -6.01 |  | CC(C)(C)OC(=O)N[C@@H]1CCN(C(c2ccncc2)c2cc3c(cc2O)CCC3)C1 (stereo partly drawn) |
| 100 | 45 | CC(C)(C)OC(=O)N[C@@H]1CCN(C(c2ccc(C#N)cn2)c2cc3c(cc2O)OCO3)C1 (stereo partly drawn) |
| 95 | 200 | CN(C)[C@@H]1CCN(C(c2ccncc2)c2cc3c(cc2O)OCO3)C1 (stereo partly drawn) |
| 99.3 | 577 | O=S(=O)(N[C@@H]1CCN(C(c2ccncc2)c2cc3c(cc2O)OCO3)C1)C1CC1 (stereo partly drawn) |
| 99.7 | 56 | CC(C)(C)OC(=O)N[C@@H]1CCN(C(c2ccc(-n3cncn3)cc2)c2cc3c(cc2O)OCO3)C1 (stereo partly drawn) |
| 93.6 | 193 | O=C(NC[C@@H]1CCN(C(c2ccncc2)c2cc3c(cc2O)OCO3)C1)C1CC1 (stereo partly drawn) |
| 97.3 | 173 | CC(C)(C)OC(=O)N[C@@H]1CCN(C(c2cc3c(cc2O)OCO3)c2ccc(F)cc2F)C1 (stereo partly drawn) |
| 99.4 | 445 | COC(=O)c1ccc(C(c2cc3c(cc2O)OCO3)N2CC[C@@H](NC(=O)OC(C)(C)C)C2)cc1 (stereo partly drawn) |

| inhibition [1] [%] | IC50 [2] [nM] | SMILES |
| --- | --- | --- |
| 96.6 | 126 | CC(C)(C)OC(=O)N[C@@H]1CCN(C(c2ccc(-c3ccncc3)cn2)c2cc3c(cc2O)OCO3)C1 (stereo partly drawn) |
| 96.6 | 437 | O=C(N[C@@H]1CCN(C(c2ccncc2)c2cc3c(cc2O)OCO3)C1)c1ccccc1F (stereo partly drawn) |
| 99.3 | 111 | CC(C)(C)OC(=O)N[C@@H]1CCN(C(c2cc3c(cc2O)OCO3)c2ccc(Cl)cc2F)C1 (stereo partly drawn) |
| 99.2 | 528 | O=C(N[C@@H]1CCN(C(c2ccncc2)c2cc3c(cc2O)OCO3)C1)C1CCCCC1 (stereo partly drawn) |
| 99.2 | 220 | CC(C)(C)OC(=O)N[C@@H]1CCN(C(c2ccc(-c3cccnc3)cc2)c2cc3c(cc2O)OCO3)C1 (stereo partly drawn) |
| 98.3 | 546 | O=C(NC1CC1)[C@@H]1CCN(C(c2ccncc2)c2cc3c(cc2O)OCO3)C1 (stereo partly drawn) |
| 94.2 | 187 | O=C(N[C@@H]1CCN(C(c2ccncc2)c2cc3c(cc2O)OCO3)C1)c1ccccc1Cl (stereo partly drawn) |
| 99.7 | 351 | O=C(N[C@@H]1CCN(C(c2ccncc2)c2cc3c(cc2O)OCO3)C1)c1cccc(F)c1 (stereo partly drawn) |
| 97.1 | 165 | CC(C)(C)OC(=O)N[C@@H]1CCN(C(c2ccc(-c3ccncc3)nc2)c2cc3c(cc2O)OCO3)C1 (stereo partly drawn) |
| 97.5 | 212 | COc1ccc(OC)c(C(c2ccncc2)N2CC[C@@H](NC(=O)OC(C)(C)C)C2)c1O (stereo partly drawn) |
| 33.6 | 1750 | N[C@@H]1CCN(C(c2ccncc2)c2cc3c(cc2O)OCO3)C1 (stereo partly drawn) |
| -3.27 |  | COc1ccc(O)c(C(c2ccncc2)N2CC[C@@H](NC(=O)OC(C)(C)C)C2)c1 (stereo partly drawn) |
| 98.2 | 586 | O=C(O[C@@H]1CCN(C(c2ccncc2)c2cc3c(cc2O)OCO3)C1)C1CC1 (stereo partly drawn) |
| 99.8 | 145 | CC(C)(C)OC(=O)N[C@@H]1CCN(C(c2ccc(-c3ccccn3)cc2)c2cc3c(cc2O)OCO3)C1 (stereo partly drawn) |
| 95.6 | 223 | CC(C)(C)OC(=O)N[C@@H]1CCN(C(c2cccc(-c3ccncc3)c2)c2cc3c(cc2O)OCO3)C1 (stereo partly drawn) |
| 97.2 | 188 | CC(C)(C)NC(=O)N[C@@H]1CCN(C(c2ccncc2)c2cc3c(cc2O)OCO3)C1 (stereo partly drawn) |
| 91.4 | 285 | CC(C)(C)OC(=O)N[C@@H]1CCN(C(c2cccc(-c3ccccn3)c2)c2cc3c(cc2O)OCO3)C1 (stereo partly drawn) |
| 44.3 |  | COc1ccc(C(c2ccncc2)N2CC[C@@H](NC(=O)OC(C)(C)C)C2)c(O)c1 (stereo partly drawn) |
| 99.8 | 155 | O=C(N[C@@H]1CCN(C(c2ccncc2)c2cc3c(cc2O)OCO3)C1)C1CC1 (stereo partly drawn) |
| 95.6 | 444 | CC(C)(C)OC(=O)N[C@@H]1CCN(C(c2ccc(-n3cccc3)cc2)c2cc3c(cc2O)OCO3)C1 (stereo partly drawn) |
| 98.7 | 382 | CC(C)(C)OC(=O)N[C@@H]1CCN(C(c2ccc(C#N)c(F)c2)c2cc3c(cc2O)OCO3)C1 (stereo partly drawn) |
| 96.5 | 220 | CC(C)C(=O)N[C@@H]1CCN(C(c2ccncc2)c2cc3c(cc2O)OCO3)C1 (stereo partly drawn) |

| inhibition [1] [%] | IC50 [2] [nM] | SMILES |
| --- | --- | --- |
| 99.8 | 87 | Cc1nccn1-c1ccc(C(c2cc3c(cc2O)OCO3)N2CC[C@@H](NC(=O)OC(C)(C)C)C2)cc1 (stereo partly drawn) |
| 77.5 | 519 | CC(=O)N[C@@H]1CCN(C(c2ccncc2)c2cc3c(cc2O)OCO3)C1 (stereo partly drawn) |
| 99.7 | 109 | CC(C)(C)OC(=O)N[C@@H]1CCN(C(c2cccc(-n3ccnc3)c2)c2cc3c(cc2O)OCO3)C1 (stereo partly drawn) |
| 98.6 | 632 | COc1cc(O)c(C(c2ccncc2)N2CC[C@@H](NC(=O)OC(C)(C)C)C2)cc1OC (stereo partly drawn) |
| 87.6 | 642 | CN(C(=O)OC(C)(C)C)[C@@H]1CCN(C(c2ccncc2)c2cc3c(cc2O)OCO3)C1 (stereo partly drawn) |
| 10.6 |  | CC(C)(C)OC(=O)N[C@@H]1CCN(C(c2ccc(-c3ccccc3)cc2)c2cc3c(cc2O)OCO3)C1 (stereo partly drawn) |
| 94.4 | 342 | CCOc1ccccc1C(=O)N[C@@H]1CCN(C(c2ccncc2)c2cc3c(cc2O)OCO3)C1 (stereo partly drawn) |
| 1.9 |  | CC(C)(C)OC(=O)N[C@@H]1CCN(C(c2ccncc2)c2ccccc2O)C1 (stereo partly drawn) |
| 97.2 | 135 | CC(C)(C)OC(=O)N[C@@H]1CCN(C(c2ccncc2)c2cc3c(cc2O)OCO3)C1 (stereo partly drawn) |
| 96.4 | 171 | CC(C)(C)NC(=S)N[C@@H]1CCN(C(c2ccncc2)c2cc3c(cc2O)OCO3)C1 (stereo partly drawn) |
| 99.9 | 536 | O=C(N[C@@H]1CCN(C(c2ccncc2)c2cc3c(cc2O)OCO3)C1)c1ccccc1 (stereo partly drawn) |
| -8.59 |  | CC(C)(C)OC(=O)N[C@@H]1CCN(C(c2ccncc2)c2ccc(C(C)(C)C)cc2O)C1 (stereo partly drawn) |
| 64.4 |  | CC(C)(C)OC(=O)N[C@@H]1CCN(C(c2cncnc2)c2cc3c(cc2O)OCO3)C1 (stereo partly drawn) |
| 99.1 | 399 | COc1ccccc1C(=O)N[C@@H]1CCN(C(c2ccncc2)c2cc3c(cc2O)OCO3)C1 (stereo partly drawn) |
| 99.4 | 330 | CC(C)(C)OC(=O)N[C@@H]1CCN(C(c2cc3c(cc2O)OCO3)c2ccc(C#N)cc2F)C1 (stereo partly drawn) |
| 97.3 | 170 | CCOc1ccc(C(=O)N[C@@H]2CCN(C(c3ccncc3)c3cc4c(cc3O)OCO4)C2)cc1 (stereo partly drawn) |
| -4.8 |  | CC(C)(C)OC(=O)N[C@@H]1CCN(Cc2cc3c(cc2O)OCO3)C1 |
| 96.6 | 892 | O=C(N[C@H]1CCN(C(c2ccncc2)c2cc3c(cc2O)OCO3)C1)C1CC1 (stereo partly drawn) |
| 0.88 |  | CC(C)(C)OC(=O)N[C@@H]1CCN(C(c2ccncc2)c2cc3c(cc2O)OC(F)(F)O3)C1 (stereo partly drawn) |
| 98.5 | 117 | CC(C)(C)OC(=O)N[C@@H]1CCN(C(c2cc3c(cc2O)OCO3)c2ccc(F)cc2Cl)C1 (stereo partly drawn) |
| 96.2 | 184 | CC(C)(C)OC(=O)N[C@@H]1CCN(C(c2cccc(-c3cccnc3)c2)c2cc3c(cc2O)OCO3)C1 (stereo partly drawn) |
